Results reported in patent publication EP3017816A2, “DIINDOLYLMETHANE-BASED MEDICINAL AGENT AND USE THEREOF TO TREAT INFLUENZA AND VIRAL RESPIRATORY INFECTIONS” (Kiselev, Vsevolod Ivanovich, priority 2013, dated 2014).
Values joined by “and” are separate entries in the source; they are usually repeats but may differ in a detail not shown here. Equal entries are not always repeated.

Columns and labels:
[1] = system: A/Aichi/2/68 (H3N2) influenza virus; assay: Experimental lethal influenza infection in mice: mortality, average life, protection index; assay type: in vivo, white mice; conditions: for Average life / Protection index, % / total mortality (number of dead/infected): reference preparation, dose not given; for total mortality (number of dead/infected): day 15
[2] = system: A/Aichi/2/68 (H3N2) influenza virus; assay: Virus titration in lung tissue of infected mice (CAM fragments, hemagglutination reaction); assay type: in vivo, white mice; conditions: 3rd day
[3] = Concentration of diindolylmethane in volunteers' plasma after oral administration; assay type: in vivo; conditions: same dosage; range of concentrations approximately 300 ng/ml
Method: In all the clinical studies, pharmacokinetics comparison was made between the DIM preparation of the invention on the basis of A-type fish oil with the concentration 1-10% of preparation, the DIM preparation on the basis of Omega 3 and the crystalline DIM in the same dosages. […] The maximum DIM concentration in blood was observed two hours after the administration of preparations and achieved approximately 300 ng/ml.

[4] = system: A/Aichi/2/68 (H3N2) influenza virus; assay: Surface of chronic postinfluenzal pneumonia foci in lungs of surviving mice; assay type: in vivo, white mice; conditions: for Surface of chronic pneumonia foci (% of total surface of the lung surface): reference preparation, dose not given, survivors day 15
Method: The animals that survived to the 15th day after infection were autopsied and their lungs were studied macroscopically. Visual evaluation was carried out of the surface of chronic foci of postinfluenzal pneumonia remaining in the lung tissue of mice after the acute stage of the influenza infection within the entire life of the animal. The surface of the lesion foci was expressed in percentage to the entire lung surface.

SMILES: c1ccc2c(Cc3c[nH]c4ccccc34)c[nH]c2c1 [crystalline DIM, 3,3-diindolylmethane]
- survival of infected animals (Fig. 2) ([1]; virus dosage 10 LD50): had no practical influence on the survival
- Infectious titer of the influenza virus (lg EID50) in lungs ([2]; 60 mg/kg orally, virus dosage 1, group average): 3.8±0.17 lg EID50
- Infectious titer of the influenza virus (lg EID50) in lungs ([2]; 60 mg/kg orally, virus dosage 1, individual animals): 4.0 lg EID50 (2×) and 3.5 lg EID50
- Infectious titer of the influenza virus (lg EID50) in lungs ([2]; 60 mg/kg orally, virus dosage 2, group average): 4.5±0.29 lg EID50
- Infectious titer of the influenza virus (lg EID50) in lungs ([2]; 60 mg/kg orally, virus dosage 2, individual animals): 5.0 lg EID50 and 4.0 lg EID50 and 4.5 lg EID50
- detection of DIM in the patients' plasma [3]: did not enable one to discover it in this range of concentrations

SMILES: CC(N)C12CC3CC(CC(C3)C1)C2 (centres unmarked) [rimantadine]
- Average life ([1]; virus dosage 1 LD50): 14.4 days
- Protection index, % ([1]; virus dosage 1 LD50): 80%
- total mortality (number of dead/infected) ([1]; virus dosage 1 LD50): 1/10
- Average life ([1]; virus dosage 10 LD50): 13.9 days
- Protection index, % ([1]; virus dosage 10 LD50): 78%
- total mortality (number of dead/infected) ([1]; virus dosage 10 LD50): 2/10
- protection index ([1]; text summary over both virus dosages): 78-80%
- Infectious titer of the influenza virus (lg EID50) in lungs ([2]; 50 mg/kg orally, virus dosage 1, group average): 2.3±0.17 lg EID50
- Infectious titer of the influenza virus (lg EID50) in lungs ([2]; 50 mg/kg orally, virus dosage 1, individual animals): 2.0 lg EID50 and 3.0 lg EID50 and 2.5 lg EID50
- Infectious titer of the influenza virus (lg EID50) in lungs ([2]; 50 mg/kg orally, virus dosage 2, group average): 2.7±0.17 lg EID50
- Infectious titer of the influenza virus (lg EID50) in lungs ([2]; 50 mg/kg orally, virus dosage 2, individual animals): 2.5 lg EID50 (2×) and 3.0 lg EID50
- effect on the surface of chronic pneumonia foci [4]: reduced this index for each infecting dosage
- Surface of chronic pneumonia foci (% of total surface of the lung surface) ([4]; viral dosage 1 LD50): 31±11.8%
- Surface of chronic pneumonia foci (% of total surface of the lung surface) ([4]; viral dosage 10 LD50): 27±6.8%
